The test concerns SN12K1 renal. The experiment in a line: growth of human tumour cells (NCI), 48 h.

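Five compound concentrations were applied to cells in 96-well plates for 48 hours; endpoints were derived by simple linear interpolation of the resulting dose-response curve. Definition used: TGI = concentration required for complete inhibition of growth.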

`COc1cccc2c1[C@H]1CO[C@H]3C4C[C@H](C(=O)O)C([C@@H](C2)N13)N4C` (some centres not stated) registered a TGI of 8.4 µM. As for `O=NN(CCCl)C(=O)NC1CCC(=O)NC1=O` (configuration not stated), the TGI turned out to be 348 µM.

For the origin of these results see PubChem BioAssay (NCI).
